Results on 21 compounds are retold here after PubChem BioAssay (NCI).

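Dose response: 5 concentrations. Exposure: 48 h. Format: 96-well plates. Endpoint: linear interpolation; highest concentration if not reached. GI50 = concentration required for 50% inhibition of growth. TGI is the concentration that stops growth completely.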

Some test systems named below: SK-MEL-5 melanoma; HT29 colon; NCI-H460 lung; MALME-3M melanoma; EKVX NSCLC; SK-MEL-28 melanoma; SW-620 colon; SK-OV-3 ovarian; HOP-92 NSCLC.
Test in all cases: NCI tumour cell line growth inhibition, 48 h

For the compound `Cc1cccc2c1C(=O)OC2(c1cccc2ccccc12)c1cccc2ccccc12`, the TGI in the assay with SK-MEL-5 melanoma, with HT29 colon, in the assay on NCI-H460 lung, with MALME-3M melanoma, in the assay on EKVX NSCLC and in the assay on SK-MEL-28 melanoma was more than 100 µM throughout. Further, the TGI with SW-620 colon and in the assay with SK-OV-3 ovarian was more than 100 µM each time.

On to `Nc1ccc(C(=O)N/C(=C\c2ccc3c(c2)OCO3)c2nc3ccc4c(c3[nH]2)C(=O)c2ccccc2C4=O)cc1`, for which the TGI in the assay on SK-MEL-5 melanoma is more than 100 µM; in the assay on HT29 colon, more than 100 µM; in the assay on HOP-92 NSCLC it was 95.7 µM; with NCI-H460 lung, more than 100 µM; in the assay on MALME-3M melanoma it was more than 100 µM; in the assay on EKVX NSCLC, more than 100 µM. Besides, the TGI with SK-MEL-28 melanoma is 78.5 µM; in the assay with SW-620 colon, more than 100 µM; with SK-OV-3 ovarian, 79.7 µM.

Consider `Cc1ccc(/C=C2\CN(C(=O)CCN3CCC(=NO)CC3)C/C(=C\c3ccc(C)cc3)C2=O)cc1`, for which the GI50 is 1.73 µM in the assay with SK-MEL-5 melanoma, 1.86 µM with HOP-92 NSCLC, 2.72 µM in the assay on EKVX NSCLC and 2.06 µM with SK-MEL-28 melanoma. The TGI was 3.16 µM with SK-MEL-5 melanoma, 4.6 µM with HOP-92 NSCLC, 8.07 µM in the assay with EKVX NSCLC and 4.63 µM in the assay with SK-MEL-28 melanoma.

`Cc1ccc(S(=O)(=O)N/N=C/CN2C(=O)c3ccccc3C2=O)cc1`: the TGI in the assay with SK-MEL-5 melanoma, in the assay with HT29 colon, in the assay with NCI-H460 lung, in the assay on MALME-3M melanoma, with EKVX NSCLC and in the assay with SW-620 colon was more than 100 µM each time.

With `CCc1cc2c(c3[nH]ccc13)[C@@H](C)C[C@H]2C`, the TGI was found to be 31.9 µM in the assay with SK-MEL-5 melanoma; 43.8 µM in the assay on HT29 colon; 32.6 µM with HOP-92 NSCLC; 29.4 µM in the assay on NCI-H460 lung; 35.4 µM in the assay on MALME-3M melanoma; 44.6 µM with EKVX NSCLC. In addition, the TGI stood at 30 µM in the assay with SK-MEL-28 melanoma, 41 µM in the assay on SW-620 colon and 54.9 µM with SK-OV-3 ovarian.

For `CCOc1c(Cc2ccccc2)c(=O)n2c3ccccc3n3c(=O)n(C)c(=O)c1c23`, the TGI in the assay with SK-MEL-5 melanoma, in the assay with HT29 colon, with HOP-92 NSCLC, in the assay with NCI-H460 lung, with MALME-3M melanoma and in the assay with EKVX NSCLC was more than 100 µM in each case. For the same compound, the TGI in the assay on SK-MEL-28 melanoma, in the assay with SW-620 colon and in the assay with SK-OV-3 ovarian was more than 100 µM throughout.

Take `CCCN(CCC)c1c([N+](=O)[O-])cc(C(N)=O)cc1[N+](=O)[O-]`: the TGI in the assay on SK-MEL-5 melanoma is 53.8 µM; with HT29 colon it was more than 100 µM; in the assay on NCI-H460 lung, more than 100 µM; in the assay with MALME-3M melanoma, more than 100 µM; with EKVX NSCLC, more than 100 µM; in the assay on SK-MEL-28 melanoma it was more than 100 µM. The compound further registered a TGI with SK-OV-3 ovarian of more than 100 µM.

Consider `O=C1NC(=Nc2ccccc2Cl)SC1C(=O)Nc1ccc([N+](=O)[O-])cc1[N+](=O)[O-]` (configuration not stated), for which the TGI in the assay on SK-MEL-5 melanoma, in the assay on HT29 colon, in the assay with HOP-92 NSCLC, in the assay with NCI-H460 lung, in the assay with MALME-3M melanoma and with EKVX NSCLC was more than 100 µM each time. The TGI in the assay with SK-MEL-28 melanoma, in the assay with SW-620 colon and in the assay with SK-OV-3 ovarian was more than 100 µM in each case.

`COc1cccc(C2N3CCCCC3[C@@H]3c4[nH]c5ccccc5c4CCN23)c1OC` (some centres not stated): the TGI in the assay with SK-MEL-5 melanoma is 30.6 µM; with HT29 colon, 25.5 µM; with HOP-92 NSCLC, 31.6 µM; in the assay on NCI-H460 lung it was 36.3 µM; with EKVX NSCLC, 32 µM; in the assay on SK-MEL-28 melanoma it was 30.4 µM. Besides, the TGI was 33.4 µM in the assay with SW-620 colon and 31.4 µM with SK-OV-3 ovarian.

Turning to `O=[P+](O)c1cc2c3ccccc3ccc2c2ccccc12`, the TGI in the assay on SK-MEL-5 melanoma, in the assay with HT29 colon, in the assay with NCI-H460 lung, in the assay on EKVX NSCLC, in the assay with SK-MEL-28 melanoma and in the assay on SW-620 colon was more than 100 µM each time. The compound further gave a TGI in the assay with SK-OV-3 ovarian of more than 100 µM.

Consider `O=C1/C(=C/c2ccccc2)CN(C(=O)Oc2ccccc2)C/C1=C\c1ccccc1`, for which the TGI in the assay with SK-MEL-5 melanoma, with HT29 colon, in the assay on NCI-H460 lung, in the assay with MALME-3M melanoma, with EKVX NSCLC and with SK-MEL-28 melanoma was more than 100 µM in each case. For the same compound, in the assay with SW-620 colon, the TGI is more than 100 µM.

Take `COc1ccc(CN[C@H]2CCc3cc(OC)c(OC)c(OC)c3-c3ccc(SC)c(=O)cc32)c(OC)c1OC`: the TGI with SK-MEL-5 melanoma is 0.257 µM; in the assay with HT29 colon, 0.03 µM; with HOP-92 NSCLC, 77.2 µM; in the assay with NCI-H460 lung, 0.0767 µM; in the assay with MALME-3M melanoma, more than 100 µM; in the assay with EKVX NSCLC it was more than 100 µM. Besides, the TGI with SK-MEL-28 melanoma, in the assay on SW-620 colon and in the assay on SK-OV-3 ovarian was more than 100 µM in each case. The GI50 was 0.0295 µM in the assay on HOP-92 NSCLC, less than 0.01 µM with MALME-3M melanoma, 0.0101 µM with SK-MEL-28 melanoma and less than 0.01 µM with SW-620 colon.

With `CC(C)C(NCc1c2ccccc2nc2ccccc12)C(=O)O` (configuration not stated), the TGI with SK-MEL-5 melanoma is more than 100 µM; with HT29 colon, more than 100 µM; in the assay on HOP-92 NSCLC, 61.9 µM; in the assay on NCI-H460 lung, more than 100 µM; in the assay with MALME-3M melanoma, more than 100 µM; in the assay on EKVX NSCLC, more than 100 µM. For the same compound, the TGI in the assay with SK-MEL-28 melanoma, in the assay on SW-620 colon and with SK-OV-3 ovarian was more than 100 µM in each case.

Take `CC(C(=O)C(C)O[Si](c1ccccc1)(c1ccccc1)C(C)(C)C)=P(c1ccccc1)(c1ccccc1)c1ccccc1` (configuration not stated): the TGI in the assay on SK-MEL-5 melanoma is 8.12 µM; in the assay with HT29 colon it was 11.5 µM; in the assay on HOP-92 NSCLC, 4.74 µM; in the assay with NCI-H460 lung it was 13.4 µM; in the assay on MALME-3M melanoma, 12 µM; in the assay with EKVX NSCLC it was 29.2 µM. For the same compound, the TGI amounted to 15.4 µM in the assay on SW-620 colon and 6.81 µM in the assay with SK-OV-3 ovarian.

For `COc1ccccc1NC(=O)NS(=O)(=O)c1ccccc1`, the TGI in the assay with SK-MEL-5 melanoma, with HT29 colon, in the assay with HOP-92 NSCLC, in the assay with NCI-H460 lung, in the assay with MALME-3M melanoma and in the assay with EKVX NSCLC was more than 100 µM in each case. For the same compound, the TGI in the assay on SK-MEL-28 melanoma and with SW-620 colon was more than 100 µM in each case.

On to `Cc1nc(=O)n2c(c1C(=O)Nc1ccc(Cl)cc1)NCCC2`, for which the TGI in the assay on HT29 colon, with HOP-92 NSCLC, in the assay on NCI-H460 lung, in the assay with MALME-3M melanoma, in the assay on EKVX NSCLC and in the assay on SK-MEL-28 melanoma was more than 100 µM throughout. The TGI with SW-620 colon and in the assay on SK-OV-3 ovarian was more than 100 µM each time.

With `CC(=O)OC1CC2C(C)(C)C(=O)C=C[C@]2(C)C2CCC3(C)C(=CCC3[C@H](CO)C[C@H](O)C(=O)C(C)(C)O)[C@]12C` (some centres not stated), the TGI is 42 µM in the assay on SK-MEL-5 melanoma; 28.1 µM in the assay on HT29 colon; 40.1 µM with NCI-H460 lung; 33.3 µM in the assay with MALME-3M melanoma; 38.5 µM with EKVX NSCLC; 36.5 µM with SK-MEL-28 melanoma. The TGI worked out at 41 µM in the assay with SW-620 colon and 48.2 µM with SK-OV-3 ovarian.

`O=C1CCC(=O)C(C(=O)CCC(=O)Nc2ccc(Cl)cc2)C1` (configuration not stated): the TGI with SK-MEL-5 melanoma, in the assay on HT29 colon, in the assay with HOP-92 NSCLC, with NCI-H460 lung, in the assay on MALME-3M melanoma and in the assay on EKVX NSCLC was more than 100 µM each time. In addition, the TGI in the assay on SW-620 colon and in the assay on SK-OV-3 ovarian was more than 100 µM throughout.

For `CCC1C(=O)OCc2c1cc1n(c2=O)Cc2ccccc2-1` (configuration not stated), the TGI in the assay with SK-MEL-5 melanoma, in the assay with HT29 colon, with HOP-92 NSCLC, in the assay on NCI-H460 lung, in the assay on MALME-3M melanoma and in the assay on EKVX NSCLC was more than 100 µM in each case. For the same compound, the TGI in the assay on SK-MEL-28 melanoma and with SW-620 colon was more than 100 µM in each case.

As to `CC(C)=CCCC1(C)C=Cc2c(ccc3c2[nH]c2cc(O)c(C)cc23)O1` (configuration not stated), the GI50 in the assay with SK-MEL-5 melanoma was 4.85 µM; in the assay with HT29 colon it was 4.9 µM; in the assay with HOP-92 NSCLC, 4.22 µM; in the assay with NCI-H460 lung, 4.73 µM; in the assay with MALME-3M melanoma, 5.2 µM; in the assay on SW-620 colon, 4.68 µM. Moreover, the TGI with SK-MEL-5 melanoma was 9.31 µM; in the assay with HT29 colon, 10.5 µM; with HOP-92 NSCLC, 10.2 µM; with NCI-H460 lung, 9.7 µM; in the assay with MALME-3M melanoma, 11 µM; in the assay on SK-MEL-28 melanoma it was more than 2.5 µM. In addition, the TGI is 9.49 µM with SW-620 colon and more than 2.5 µM with SK-OV-3 ovarian.

Take `c1cc[c]([Sn]([O]c2cccc3cccnc23)([c]2ccccc2)[c]2ccccc2)cc1`: the GI50 in the assay with SK-MEL-5 melanoma is 0.0186 µM; in the assay on HT29 colon it was 0.0311 µM; in the assay with HOP-92 NSCLC, 0.0172 µM; in the assay with NCI-H460 lung it was 0.0154 µM; in the assay on EKVX NSCLC, 0.0416 µM; in the assay on SK-MEL-28 melanoma, 0.0116 µM. Moreover, the GI50 is 0.0101 µM in the assay with SW-620 colon and 0.0192 µM in the assay on SK-OV-3 ovarian. Besides, the TGI was found to be 0.0422 µM with SK-MEL-5 melanoma; 0.095 µM in the assay on HT29 colon; 0.0575 µM with HOP-92 NSCLC; 0.0321 µM in the assay with NCI-H460 lung; 0.17 µM with EKVX NSCLC; 0.0299 µM in the assay on SK-MEL-28 melanoma. The TGI in the assay on SW-620 colon was determined as 0.0217 µM; in the assay on SK-OV-3 ovarian, 0.038 µM.
